Test results taken from patent US8680139B2 (Progenra, priority 2009, dated 2014).
Values joined by “and” are separate entries in the source; they are usually repeats but may differ in a detail not shown here. Equal values may be shown once.

Tests used:
[1] = target: T1, USP7 (Homo sapiens, UniProt Q93009); test: USP7, Ub-PLA2 assay; format: biochemical; details: for EC50: Ub-PLA2 / NBD C6-HPC fluorescence, 30 minute preincubation, read-out: EC50 for inhibition of USP7; for USP7 inhibition, result in words: USP7, Ub-PLA2 assay
T1 construct: full length human USP7 protein; made in house
T1 sequence (Q93009 whole entry): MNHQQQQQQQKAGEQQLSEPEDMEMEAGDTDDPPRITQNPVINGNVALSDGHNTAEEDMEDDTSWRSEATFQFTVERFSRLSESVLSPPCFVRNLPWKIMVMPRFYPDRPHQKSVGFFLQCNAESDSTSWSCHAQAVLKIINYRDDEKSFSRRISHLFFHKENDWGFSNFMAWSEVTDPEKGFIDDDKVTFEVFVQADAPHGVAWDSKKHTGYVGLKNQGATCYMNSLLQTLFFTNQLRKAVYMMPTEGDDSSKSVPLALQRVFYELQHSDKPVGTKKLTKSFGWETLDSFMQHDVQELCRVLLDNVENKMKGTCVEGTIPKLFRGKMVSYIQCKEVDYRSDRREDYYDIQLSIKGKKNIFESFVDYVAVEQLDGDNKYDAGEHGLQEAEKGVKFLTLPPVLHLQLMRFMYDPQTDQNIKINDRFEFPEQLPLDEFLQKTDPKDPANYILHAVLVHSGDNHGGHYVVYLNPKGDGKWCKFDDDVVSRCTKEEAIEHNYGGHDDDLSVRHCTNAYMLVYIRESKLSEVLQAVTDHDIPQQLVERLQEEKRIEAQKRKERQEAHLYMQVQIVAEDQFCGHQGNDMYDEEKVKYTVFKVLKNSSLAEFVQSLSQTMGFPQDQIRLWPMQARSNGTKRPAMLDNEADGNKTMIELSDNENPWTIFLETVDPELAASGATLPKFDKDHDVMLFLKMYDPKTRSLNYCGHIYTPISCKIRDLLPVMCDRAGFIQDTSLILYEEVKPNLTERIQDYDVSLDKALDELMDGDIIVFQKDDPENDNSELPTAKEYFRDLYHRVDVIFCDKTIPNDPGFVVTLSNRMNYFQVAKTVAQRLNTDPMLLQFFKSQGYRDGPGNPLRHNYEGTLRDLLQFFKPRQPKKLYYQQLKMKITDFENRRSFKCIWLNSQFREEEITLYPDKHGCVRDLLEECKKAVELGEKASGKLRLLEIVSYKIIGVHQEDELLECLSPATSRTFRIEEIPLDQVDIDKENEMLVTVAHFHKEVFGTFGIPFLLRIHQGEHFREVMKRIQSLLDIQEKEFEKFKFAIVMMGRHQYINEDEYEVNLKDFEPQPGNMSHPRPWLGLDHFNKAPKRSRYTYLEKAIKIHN
Outline: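 Activity read as fluorescence in a Ub-PLA2 format, with percent inhibition calculated within each plate against DMSO (uninhibited) and NEM (background) wells. Vehicle was 100% DMSO.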

[2] = HCT-116 Cellular Cytotoxicity Assay; details: human, HCT-116 cells, pH 7.2
Procedure: The purpose of this assay is to determine if any of the synthesized compounds are cytotoxic against HCT-116 cells, as measured by resazurin metabolism. Resazurin is metabolized only by living cells from a non-fluorescent molecule into Resorufin, a highly red fluorescent dye. […] The cells were cultured in an incubator at 37° C. in 5% CO2 and 95% humidified air. […] The final concentration DMSO was 0.5% (v/v) in all samples. The plates were returned to the incubator for 72 hours. Following 72 hours of test compound exposure, 10 μL of 0.2 mg/mL Resazurin (Sigma) in phosphate buffered saline was added to each well and the plate was returned to the incubator for 3-6 hours. Since living cells metabolize Resazurin, the fluorescence of the reduction product of Resazurin was measured using a microplate fluorometer with λex=531 nm and λem=590 nm filters. Resazurin dye in medium without cells was used to determine the background, which was subtracted from the data for all experimental wells.

Row | EC50 [1] | USP7 inhibition, result in words [1] | Compound | EC50 at 72 h [2] [µM]
1 | ≤ 1 µM | – | CN1C(C)(C)CC(NC(=O)c2cc([N+](=O)[O-])c(Sc3c(Cl)cncc3Cl)s2)CC1(C)C [Example 188, 5-((3,5-dichloropyridin-4-yl)thio)-4-nitro-N-(1,2,2,6,6-pentamethylpiperidin-4-yl)thiophene-2-carboxamide] | 7.9
2 | ≤ 1 µM | – | CN(C)CCOc1ccc(NC(=O)c2cc([N+](=O)[O-])c(Sc3c(Cl)cncc3Cl)s2)cc1 [Example 192, 5-((3,5-dichloropyridin-4-yl)thio)-N-(4-(2-(dimethylamino)ethoxy)phenyl)-4-nitrothiophene-2-carboxamide] | 4.9
3 | ≤ 1 µM | Particularly good results | CN(C)CCCOc1ccc(NC(=O)c2cc([N+](=O)[O-])c(Sc3c(Cl)cncc3Cl)s2)cc1 [Example 193, 5-[(3,5-dichloro-4-pyridyl)sulfanyl]-N-[4-(3-dimethylaminopropoxy)phenyl]-4-nitro-thiophene-2-carboxamide] | 3.37
4 | 1 to 10 µM | – | CN1CCC(NC(=O)c2cc(C#N)c(Sc3c(Cl)cncc3Cl)s2)CC1 [Example 203, 4-cyano-5-((3,5-dichloropyridin-4-yl)thio)-N-(1-methylpiperidin-4-yl)thiophene-2-carboxamide] | 10.4
5 | ≤ 1 µM | – | COc1cc(NC(=O)c2cc(C#N)c(Sc3c(Cl)cncc3Cl)s2)ccc1OCCCN(C)C [Example 205, 4-cyano-5-((3,5-dichloropyridin-4-yl)thio)-N-(4-(3-(dimethylamino)propoxy)-3-methoxyphenyl)thiophene-2-carboxamide] | 3.1
6 | > 10 µM | – | CN1CCC(NC(=O)c2cc([N+](=O)[O-])c(Oc3c(Cl)cccc3Cl)s2)CC1 [Example 261, 5-(2,6-dichlorophenoxy)-N-(1-methylpiperidin-4-yl)-4-nitrothiophene-2-carboxamide] | –
7 | ≤ 1 µM | – | CSc1ccc(CNC(=O)c2cc([N+](=O)[O-])c(Sc3c(Cl)cncc3Cl)s2)cc1 [Example 264, 5-((3,5-dichloropyridin-4-yl)thio)-N-(4-(methylthio)benzyl)-4-nitrothiophene-2-carboxamide] | –
8 | 1 to 10 µM | – | COC(=O)c1cc([N+](=O)[O-])c(Sc2nc3cc(Cl)c(F)cc3[nH]2)s1 [Example 265, Methyl 5-((5-chloro-6-fluoro-1H-benzo[d]imidazol-2-yl)thio)-4-nitrothiophene-2-carboxylate] | –
9 | > 10 µM | – | COC(=O)c1cc([N+](=O)[O-])c(Sc2nc3nc(C)cc(C)n3n2)s1 [Example 266, Methyl 5-((5,7-dimethyl-[1,2,4]triazolo[1,5-a]pyrimidin-2-yl)thio)-4-nitrothiophene-2-carboxylate] | –
10 | > 10 µM | – | O=C(NCCCN1CCCCC1)c1cc([N+](=O)[O-])c(Sc2ccc(F)cc2F)s1 [Example 267, 5-((2,4-difluorophenyl)thio)-4-nitro-N-(3-(piperidin-1-yl)propyl)thiophene-2-carboxamide] | –
11 | 1 to 10 µM | – | O=C(NCCC(=O)N1CCCC1)c1cc([N+](=O)[O-])c(Sc2c(Cl)cncc2Cl)s1 [Example 268, 5-((3,5-dichloropyridin-4-yl)thio)-4-nitro-N-(3-oxo-3-(pyrrolidin-1-yl)propyl)thiophene-2-carboxamide] | –
12 | 1 to 10 µM | – | CN1CCC(NC(=O)c2cc([N+](=O)[O-])c(Sc3c(Cl)cccc3Cl)s2)CC1 [Example 269, 5-((2,6-dichlorophenyl)thio)-N-(1-methylpiperidin-4-yl)-4-nitrothiophene-2-carboxamide] | –
13 | 1 to 10 µM | – | CN1CCC(NC(=O)Nc2cc([N+](=O)[O-])c(Sc3c(Cl)cncc3Cl)s2)CC1 [Example 270, 1-(5-((3,5-dichloropyridin-4-yl)thio)-4-nitrothiophen-2-yl)-3-(1-methylpiperidin-4-yl)urea] | –
14 | 1 to 10 µM and > 10 µM | – | CC(=O)c1cc([N+](=O)[O-])c(Sc2c(F)c(F)c(Cl)c(F)c2F)s1 [Example 272, 1-(5-((4-chloro-2,3,5,6-tetrafluorophenyl)thio)-4-nitrothiophen-2-yl)ethanone] | –

Second part, the compound before the results:

Row | Compound | EC50 [1] | USP7 inhibition, result in words [1] | EC50 at 72 h [2] [µM]
15 | CC(=O)c1cc([N+](=O)[O-])c(Sc2ccc(Cl)cc2Cl)s1 [Example 2, 1-[5-(2,4-Dichlorophenylsulfanyl)-4-nitro-2-thienyl]ethanone] | 1 to 10 µM | – | 16.1
16 | CC(=O)c1cc([N+](=O)[O-])c(Sc2c(Cl)cccc2Cl)s1 [Example 7, 1-[5-(2,6-Dichlorophenylsulfanyl)-4-nitro-2-thienyl]ethanone] | 1 to 10 µM | – | 30.6
17 | CC(=O)c1cc([N+](=O)[O-])c(Sc2ccc(Cl)c(Cl)c2)s1 [Example 8, 1-[5-(3,4-Dichlorophenylsulfanyl)-4-nitro-2-thienyl]ethanone] | 1 to 10 µM | – | 14.8
18 | CC(=O)c1cc([N+](=O)[O-])c(Sc2cc(Cl)cc(Cl)c2)s1 [Example 9, 1-[5-(3,5-Dichlorophenylsulfanyl)-4-nitro-2-thienyl]ethanone] | 1 to 10 µM | – | 8.13
19 | CC(=O)c1cc(C#N)c(Sc2ccc(Cl)cc2Cl)s1 [Example 21, 1-[4-cyano-5-(2,4-dichlorophenyl)sulfanyl-2-thienyl]ethanone] | > 10 µM | – | 32.5
20 | CN(C)CCC(=O)c1cc([N+](=O)[O-])c(Sc2ccc(Cl)cc2Cl)s1 [Example 24, 1-[5-(2,4-dichlorophenyl)sulfanyl-4-nitro-2-thienyl]-3-dimethylamino-propan-1-one] | 1 to 10 µM | – | 27.3
21 | CN(C)CCC(O)c1cc([N+](=O)[O-])c(Sc2ccc(Cl)cc2Cl)s1 (stereo not shown) [Example 25, 1-[5-(2,4-dichlorophenyl)sulfanyl-4-nitro-2-thienyl]-3-dimethylamino-propan-1-ol] | 1 to 10 µM | – | 15.2
22 | Cc1cnc(CNC(=O)c2cc([N+](=O)[O-])c(Sc3c(Cl)cncc3Cl)s2)cn1 [Example 103, 5-((3,5-dichloropyridin-4-yl)thio)-N-((5-methylpyrazin-2-yl)methyl)-4-nitrothiophene-2-carboxamide] | ≤ 1 µM | – | 7.18
23 | O=C(Nc1cc(C2CC2)n[nH]1)c1cc([N+](=O)[O-])c(Sc2c(Cl)cncc2Cl)s1 [Example 123, N-(3-cyclopropyl-1H-pyrazol-5-yl)-5-((3,5-dichloropyridin-4-yl)thio)-4-nitrothiophene-2-carboxamide] | ≤ 1 µM | Particularly good results | 11
24 | CS(=O)(=O)c1ccc(NC(=O)c2cc([N+](=O)[O-])c(Sc3c(Cl)cncc3Cl)s2)cc1 [Example 129, 5-((3,5-dichloropyridin-4-yl)thio)-N-(4-(methylsulfonyl)phenyl)-4-nitrothiophene-2-carboxamide] | ≤ 1 µM | Particularly good results | 5.89
25 | COc1ccc(NC(=O)c2cc([N+](=O)[O-])c(Sc3c(Cl)cncc3Cl)s2)cc1 [Example 155, 5-((3,5-dichloropyridin-4-yl)thio)-N-(4-methoxyphenyl)-4-nitrothiophene-2-carboxamide] | ≤ 1 µM | Particularly good results | 5.49
26 | O=C(Nc1ccc(N2CCOCC2)cc1)c1cc([N+](=O)[O-])c(Sc2c(Cl)cncc2Cl)s1 [Example 157, 5-((3,5-dichloropyridin-4-yl)thio)-N-(4-morpholinophenyl)-4-nitrothiophene-2-carboxamide] | ≤ 1 µM | – | 27.3
27 | NS(=O)(=O)c1ccc(NC(=O)c2cc([N+](=O)[O-])c(Sc3c(Cl)cncc3Cl)s2)cc1 [Example 160, 5-((3,5-dichloropyridin-4-yl)thio)-4-nitro-N-(4-sulfamoylphenyl)thiophene-2-carboxamide] | ≤ 1 µM | – | 6.17
28 | O=C(Nc1ccon1)c1cc([N+](=O)[O-])c(Sc2c(Cl)cncc2Cl)s1 [Example 171, 5-((3,5-dichloropyridin-4-yl)thio)-N-(isoxazol-3-yl)-4-nitrothiophene-2-carboxamide] | ≤ 1 µM | – | 10.9
29 | O=C(Nc1nccs1)c1cc([N+](=O)[O-])c(Sc2c(Cl)cncc2Cl)s1 [Example 172, 5-((3,5-dichloropyridin-4-yl)thio)-4-nitro-N-(thiazol-2-yl)thiophene-2-carboxamide] | ≤ 1 µM | – | 12.9
30 | O=C(Nc1cnc2ccccc2c1)c1cc([N+](=O)[O-])c(Sc2c(Cl)cncc2Cl)s1 [Example 173, 5-((3,5-dichloropyridin-4-yl)thio)-4-nitro-N-(quinolin-3-yl)thiophene-2-carboxamide] | ≤ 1 µM | Particularly good results | 5.15
31 | COc1ccc(NC(=O)c2cc([N+](=O)[O-])c(Sc3c(Cl)cncc3Cl)s2)cn1 [Example 175, 5-((3,5-dichloropyridin-4-yl)thio)-N-(6-methoxypyridin-3-yl)-4-nitrothiophene-2-carboxamide] | ≤ 1 µM | – | 7.23
32 | O=C(Nc1cccc2cnccc12)c1cc([N+](=O)[O-])c(Sc2c(Cl)cncc2Cl)s1 [Example 179, 5-((3,5-dichloropyridin-4-yl)thio)-N-(isoquinolin-5-yl)-4-nitrothiophene-2-carboxamide] | ≤ 1 µM | – | 4.23
33 | O=C(Nc1ccc2ncccc2c1)c1cc([N+](=O)[O-])c(Sc2c(Cl)cncc2Cl)s1 [Example 180, 5-((3,5-dichloropyridin-4-yl)thio)-4-nitro-N-(quinolin-6-yl)thiophene-2-carboxamide] | ≤ 1 µM | – | 7.62
34 | Cc1cc(NC(=O)c2cc([N+](=O)[O-])c(Sc3c(Cl)cncc3Cl)s2)n(CCN(C)C)n1 [Example 182, 5-((3,5-dichloropyridin-4-yl)thio)-N-(1-(2-(dimethylamino)ethyl)-3-methyl-1H-pyrazol-5-yl)-4-nitrothiophene-2-carboxamide] | ≤ 1 µM | – | 14.3
